According to patent publication US6342504B1, “Aromatic heterocyclic derivatives as enzyme inhibitors” (priority 1994, dated 2002):
Structures can show the parent of a compound that is named as a salt. Where two headings read alike, the source gives them in different places.

Assays:
[1] = target: T1, Human rt-PA (Activase) (Homo sapiens, UniProt P00750); experiment: biochemical; settings: 30 minute incubation; 1.0 nM enzyme; read-out: IC50 rt-PA (Table 2)
T1 construct: purchased Genentech Inc
Method: The ability of compounds of the present invention to act as a selective inhibitor of thrombin catalytic activity was assessed by determining the concentration of compound which inhibited the activity of this enzyme by 50%, (IC50), and comparing this value to that determined for all or some of the following related serine proteases: recombinant tissue plasminogen activator (rt-PA), plasmin, activated protein C, chymotrypsin, factor Xa and trypsin.
(§1) The buffer used for all assays was HBSA (10 mM HEPES, pH 7.5, 150 mM sodium chloride, 0.1% bovine serum albumin).
The assay for IC50 determinations was conducted by combining in appropriate wells of a Corning microtiter plate, 50 microliters of HBSA, 50 microliters of the test compound at a specified concentration (covering a broad concentration range) diluted in HBSA (or HBSA alone for VO (uninhibited velocity) measurement), and 50 microliters of the enzyme diluted in HBSA. Following a 30 minute incubation at ambient temperature, 50 microliters of the substrate at the concentrations specified below were added to the wells, yielding a final total volume of 200 microliters. The initial velocity of chromogenic substrate hydrolysis was measured by the change in absorbance at 405 nm using a Thermo Max® Kinetic Microplate Reader over a 5 minute period in which less than 5% of the added substrate was utilized. The concentration of added inhibitor which caused a 50% decrease in the initial rate of hydrolysis was defined as the IC50 value.
Recombinant Tissue Plasminogen Activator (rt-PA) Assay
rt-PA catalytic activity was determined using the substrate, Pefachrome t-PA (CH3SO2-D-hexahydrotyrosine-glycyl-L-arginine-p-nitroaniline, obtained from Pentapharm Ltd.). The substrate was made up in deionized water followed by dilution in HBSA prior to the assay in which the final concentration was 500 micromolar (about 3-times Km). Human rt-PA (Activase®) was obtained from Genentech Inc. The enzyme was reconstituted in deionized water and diluted into HBSA prior to the assay in which the final concentration was 1.0 nM.

[2] = target: T2, human aPC (Homo sapiens, UniProt P04070); experiment: biochemical; settings: 30 minute incubation; 1.0 nM enzyme; read-out: IC50 aPC (Table 2)
T2 construct: purchased Hematologic Technologies, Inc
T2 sequence (P04070 43-197): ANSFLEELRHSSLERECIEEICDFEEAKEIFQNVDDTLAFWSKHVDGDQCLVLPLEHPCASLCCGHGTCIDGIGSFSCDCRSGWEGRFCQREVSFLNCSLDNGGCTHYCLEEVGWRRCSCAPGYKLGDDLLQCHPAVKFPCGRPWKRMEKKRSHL
T2 sequence (P04070 212-461): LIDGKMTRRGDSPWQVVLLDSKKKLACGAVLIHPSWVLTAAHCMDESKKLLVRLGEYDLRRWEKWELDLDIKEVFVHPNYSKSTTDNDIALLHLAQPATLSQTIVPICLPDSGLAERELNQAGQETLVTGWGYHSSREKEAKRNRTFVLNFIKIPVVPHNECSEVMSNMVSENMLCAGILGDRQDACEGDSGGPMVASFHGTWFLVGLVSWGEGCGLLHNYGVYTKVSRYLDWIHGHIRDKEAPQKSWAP
Method: as §1
Following a 30 minute incubation at ambient temperature, 50 microliters of the substrate at the concentrations specified below were added to the wells, yielding a final total volume of 200 microliters.
Activated Protein C (aPC) Assay
aPC catalytic activity was determined using the chromogenic substrate, Pefachrome PC (delta-carbobenzloxy-D-lysine-L-prolyl-L-arginine-p-nitroaniline dihydrochloride), obtained from Pentapharm Ltd.). […] Purified human aPC was obtained from Hematologic Technologies, Inc. The enzyme was diluted into HBSA prior to assay in which the final concentration was 1.0 nM.

[3] = test system: clot formation on silk thread in A-V shunt; experiment: Multiple extracorporeal (A-V) shunt model in rats utilizing oral dosing; assay type: in vivo; settings: rat, read-out: ED50 value (dose that reduced the clot size by 50%)
Method: The compounds of Example 10 and 143 were evaluated in a multichamber A-V shunt model in rats. The A-V shunt model is one of the most common and generally used systems to evaluate antithrombotic compounds: Smith, J. R. and White, A. M. Br. J. Pharmacol., 77: 29-38 (1982). In this model a localized clot made up of primarily fibrin with some platelet and macrophage involvement (Shand, R. A. and Smith, J. R. and Wallis, R. B. Thromb. Res., 36: 223-232 (1984)), is formed on an artificial thrombogenic surface (typically a segment of silk or cotton thread) contained in a sialstic chamber which is part of an exteriorized shunt between the carotid artery and jugular vein. The procedure described in this Example is a modified A-V shunt model that allows for oral dosing of test agents and subsequent evaluation of efficacy over a two to three hour window in time.
Briefly, male Harlan Sprague Dawley rats (420-450 g) were acclimated at least 72 hours prior to use. The animals were fasted for 12 hours prior to surgery with free access to water. Unanesthetized animals were grouped into three or four dosage groups (six or seven animals per group) and administered test agents orally via gavage needle, at doses of 1.0, 3.0, 10 and 50 mg/kg for the compound of Example 10, and 3.0, 10 and 30 mg/kg for the Compound of Example 143. Immediately after oral dosing, animals were anesthetized with sodium pentobarbital (Nembutal) given intraperitoneally at a dose of 50 mg/kg body weight, and placed on a isothermal pad to maintain body temperature. The level of anesthesia was monitored every 15 minutes by neuro-response to a tail pinch, respiration and core temperature. The desired depth of surgical anesthesia was maintained by administering subsequent doses (5 mg/kg) intravenously. The left femoral artery was catheterized using standard procedures for blood pressure monitoring and blood sampling, with polyethylene tubing (PE50). The left femoral vein was catheterized with PE50 tubing for delivery of anethestic.
The exteriorized shunts were assembled by connecting two pieces of saline filled 12.5 cm PE90 tubing with a 6 cm piece of PE160 tubing containing a 6 cm piece of silk suture size 3 and clamped with hemostats. A small 0.5 cm portion of the silk thread protrudes from the junction of the chamber with the shunt. The left jugular vein and right carotid artery were catheterized with the ends of the PE90 shunt. The shunt was unclamped and blood allowed to flow from the carotid artery, through the chamber, and exit the shunt via the jugular vein. After 15 minutes, both sides of the chamber were clamped and the suture containing the clot removed following detachment of the arterial end of the chamber. The clot was immediately weighed and recorded. This procedure takes place at predetermined intervals (60, 90, 120, and 150 minutes after oral dosing) to allow assessment of efficacy over a large window in time. Four shunts were placed with flow initiated at 45, 75, 105, and 135 minutes after oral compound administration. Clot weight from the four shunts was the primary endpoint of the protocol. Blood pressure, heart rate core temperature and respiration were monitored continuously. Following termination of the experiment the animals were euthanized with a 120 mg/kg dose of Nembutal. One experiment was performed per animal.
ED50 values were calculated at 60, 90, 120, and 150 minutes after oral dosing of test compound. ED50 is that dose that reduced the clot size by 50%. […]

T1 sequence (P00750 36-562): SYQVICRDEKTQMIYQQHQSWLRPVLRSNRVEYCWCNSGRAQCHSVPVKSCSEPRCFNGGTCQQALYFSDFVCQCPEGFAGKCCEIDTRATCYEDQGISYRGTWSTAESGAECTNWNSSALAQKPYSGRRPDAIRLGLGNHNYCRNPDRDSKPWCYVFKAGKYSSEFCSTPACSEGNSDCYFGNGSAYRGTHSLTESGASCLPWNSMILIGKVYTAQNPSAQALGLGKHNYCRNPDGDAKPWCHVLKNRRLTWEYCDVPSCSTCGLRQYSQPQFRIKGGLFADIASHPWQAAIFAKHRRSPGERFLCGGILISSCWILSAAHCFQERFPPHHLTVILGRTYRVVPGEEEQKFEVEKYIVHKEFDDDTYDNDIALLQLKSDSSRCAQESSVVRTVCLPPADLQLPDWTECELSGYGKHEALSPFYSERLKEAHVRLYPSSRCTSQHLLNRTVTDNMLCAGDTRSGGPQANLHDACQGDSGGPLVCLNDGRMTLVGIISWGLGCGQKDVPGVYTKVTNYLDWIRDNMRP

N=C(N)NCCC[C@@H](C=O)NC(=O)Cn1cccc(NS(=O)(=O)Cc2ccccc2)c1=O [Example 10, [3-[(benzylsulfonyl)amino]-2-oxo-1,2-dihydropyridyl]acetyl-L-argininal, trifluoroacetate salt]
IC50 [1]: > 2500 nM
IC50 [2]: > 2500 nM
ED50 ([3]; 1 h, 60 min after oral dose): < 1 mg/kg
ED50 ([3]; 1.5 h, 90 min after oral dose): 2.9 mg/kg
ED50 ([3]; 2 h, 120 min after oral dose): 2.9 mg/kg
ED50 ([3]; 150 min after oral dose): 8.2 mg/kg
